This is an account of results in US20210261561A1, “BICYCLIC HETEROCYCLE DERIVATIVES HAVING SELECTIVE BACE1 INHIBITORY ACTIVITY” (SHIONOGI & CO., LTD., priority 2018, published 2021).

In assay [1] the target is T1, BACE1 (Homo sapiens, UniProt P56817). The assay is described as follows: BACE1 biochemical FRET based assay (Test Example 2-1). The note with it: for selectivity: BACE2 IC50 over BACE1 IC50 (FRET); for pIC50: FRET, 0.04 μg/mL BACE1, 450 minutes, Citrate buffer pH 5.0. The text has this:
(§1) This assay is a Fluorescence Resonance Energy Transfer Assay (FRET) based assay. The substrate for this assay is an APP derived 13 amino acids peptide that contains the ‘Swedish’ Lys-Met/Asn-Leu mutation of the amyloid precursor protein (APP) beta-site secretase cleavage site. This substrate also contains two fluorophores: (7-methoxycoumarin-4-yl) acetic acid (Mca) is a fluorescent donor with excitation wavelength at 320 nm and emission at 405 nm and 2,4-dinitrophenol (Dnp) is a proprietary quencher acceptor. […] Upon cleavage by BACE1, the fluorophore Mca is separated from the quenching group Dnp, restoring the full fluorescence yield of the donor. The increase in fluorescence is linearly related to the rate of proteolysis.
(§2) Briefly in a 384-well format recombinant BACE1 protein in a final concentration of 0.04 μg/mL is incubated for 450 minutes at room temperature with […] substrate in incubation buffer (final concentrations: 33.3 mM Citrate buffer pH 5.0, 0.033% PEG, 3% DMSO) in the absence or presence of compound. Next the amount of proteolysis is directly measured by fluorescence measurement at T=0′-120′ and T=450′ (excitation at 320 nm and emission at 405 nm). Results are expressed in RFU (Relative Fluorescence Units), as difference between T450 and Tx (Tx is chosen depending on the reaction speed between 0 and 120 minutes.).
A best-fit curve is fitted by a minimum sum of squares method to the plot of % Controlmin versus compound concentration. From this an IC50 value (inhibitory concentration causing 50% inhibition of activity) can be obtained.

Assay [2] concerns the target T2, BACE2 (Homo sapiens, UniProt Q9Y5Z0).
T2 sequence (Q9Y5Z0 63-518): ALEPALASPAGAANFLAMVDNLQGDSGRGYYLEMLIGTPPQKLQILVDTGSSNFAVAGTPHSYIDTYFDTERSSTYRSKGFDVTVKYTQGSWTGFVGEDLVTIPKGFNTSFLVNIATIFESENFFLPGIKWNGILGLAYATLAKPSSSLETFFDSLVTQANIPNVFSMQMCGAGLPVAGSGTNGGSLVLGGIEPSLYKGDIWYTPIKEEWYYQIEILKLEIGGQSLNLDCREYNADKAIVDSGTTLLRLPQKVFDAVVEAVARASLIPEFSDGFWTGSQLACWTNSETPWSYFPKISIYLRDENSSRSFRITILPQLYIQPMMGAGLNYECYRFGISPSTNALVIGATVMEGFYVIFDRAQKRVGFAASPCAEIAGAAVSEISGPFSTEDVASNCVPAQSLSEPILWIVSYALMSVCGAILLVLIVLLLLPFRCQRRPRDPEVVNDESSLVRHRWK
The assay is described as follows: BACE2 biochemical FRET based assay (Test Example 2-1 (2)). The settings on record: 0.4 μg/mL BACE2, 450 minutes, Citrate buffer pH 5.0. The source says:
This assay is a Fluorescence Resonance Energy Transfer Assay (FRET) based assay. The substrate for this assay contains the ‘Swedish’ Lys-Met/Asn-Leu mutation of the amyloid precursor protein (APP) beta-secretase cleavage site. This substrate also contains two fluorophores: (7-methoxycoumarin-4-yl) acetic acid (Mca) is a fluorescent donor with excitation wavelength at 320 nm and emission at 405 nm and 2,4-dinitrophenol (Dnp) is a proprietary quencher acceptor. […] Upon cleavage by the beta-secretase, the fluorophore Mca is separated from the quenching group Dnp, restoring the full fluorescence yield of the donor. The increase in fluorescence is linearly related to the rate of proteolysis. Briefly in a 384-well format recombinant BACE2 protein in a final concentration of 0.4 μg/mL was incubated for 450 minutes at room temperature with 10 μM substrate in incubation buffer (final concentrations: 33.3 mM Citrate buffer pH 5.0, 0.033% PEG, 2% DMSO) in the absence or presence of compound. Next the amount of proteolysis was directly measured by fluorescence measurement at T=0 and T=450 (excitation at 320 nm and emission at 405 nm). Results were expressed in RFU (Relative Fluorescence Units), as difference between T450 and TO.
A best-fit curve was fitted by a minimum sum of squares method to the plot of % Controlmin versus compound concentration. From this an IC50 value (inhibitory concentration causing 50% inhibition of activity) can be obtained.

Assay [3] concerns the target T2, BACE2. The assay is described as follows: BACE2 biochemical FRET based assay (Test Example 2-4). The note with it: recombinant BACE2 0.4 μg/mL, 10 μM substrate, 450 minutes, pH 5.0; read-out: BACE2 Biochemical FRET based assay pIC50 (converted).
Excerpt: as §1, with “assay” for “assay is an APP derived 13 amino acids peptide that”, “beta-secretase” for “beta-site secretase”, “the beta-secretase,” for “BACE1,”
Briefly in a 384-well format recombinant BACE2 protein in a final concentration of 0.4 μg/mL is incubated for 450 minutes at room temperature with 10 μM substrate in incubation buffer (final concentrations: 33.3 mM Citrate buffer pH 5.0, 0.033% PEG, 2% DMSO) in the absence or presence of compound. Next the amount of proteolysis is directly measured by fluorescence measurement at T=0 and T=450 (excitation at 320 nm and emission at 405 nm). Results are expressed in RFU (Relative Fluorescence Units), as difference between T450 and TO.
(§3) Data are analysed using Screener (Registered trademark) (Genedata, Switzerland). Data were normalized and % inhibition=100−[(sample−LC)/(HC−LC))*100], was plotted versus the log concentration of the test compound. Curves were analysed using non-linear regression analysis and IC50 values (inhibitory concentration causing 50% inhibition of activity) were derived from individual curves.
(§4) LC=Median of the low control values
(§5) =Low control: Reaction without enzyme
(§6) HC=Median of the High control values
(§7) =High Control: Reaction with enzyme
(§8) % Inhibition=100−[(sample−LC)/(HC−LC)*100]

Assay [4] addresses T3, BACE2 (Mus musculus, UniProt Q9JL18).
T3 construct: endogenous in cells; host or cells: MIN6 mouse insulinoma cells expressing Flag-V5-TMEM27-HA
T3 sequence (Q9JL18 63-514): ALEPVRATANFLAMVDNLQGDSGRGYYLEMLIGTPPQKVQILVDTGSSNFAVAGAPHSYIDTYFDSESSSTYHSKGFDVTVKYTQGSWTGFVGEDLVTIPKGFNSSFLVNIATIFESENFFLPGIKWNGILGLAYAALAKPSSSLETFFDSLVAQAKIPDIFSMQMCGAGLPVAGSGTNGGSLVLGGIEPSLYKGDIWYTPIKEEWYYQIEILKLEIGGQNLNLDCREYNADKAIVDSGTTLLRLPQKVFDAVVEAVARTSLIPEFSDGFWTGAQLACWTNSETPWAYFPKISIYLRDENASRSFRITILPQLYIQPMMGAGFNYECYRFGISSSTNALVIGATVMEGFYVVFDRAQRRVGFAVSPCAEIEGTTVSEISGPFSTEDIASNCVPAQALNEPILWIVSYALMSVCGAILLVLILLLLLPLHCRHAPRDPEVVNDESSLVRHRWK
The assay is described as follows: BACE2 cellular assay in MIN6 cells, secreted TMEM27 (Test Example 2-5). It counts as cell-based. The note with it: 24 hours incubation, secreted TMEM27 by MSD, read-out: Cellular MSD assay in Min6 cells TV1EV127 pIC50 (converted). The method, then: Cellular BACE2 activity was measured by determination of the level of secreted TMEM27 into the medium of MIN6 cells using an MSD platform. The assay is based on the mouse insulinoma MIN6 cells expressing Flag-V5-TMEM27-HA. When BACE2 cleaves TMEM27 the N-terminal part of TMEM27 with the V5-Flag tag will be shed into the medium, and the amount of this cleaved product is measured with the MSD assay.
Briefly in a 96-well format the cells are incubated for 24 hours in the presence of the compound followed by the measurement of secreted TMEM27 in the medium via MSD using FLAG-L5 coating antibody and a V5 detection antibody. When TMEM27 is captured on the electrode surface of the multi-array microplate the detection antibody, conjugated with the sulfo-Tag™, is in close proximity of the surface, it generates a light via a series of reduction and oxidation reactions. The intensity of the emitted light is measured with the MSD imager to provide a quantitative measure for the analytes in the sample.
as §3, §4, §5, §6, §7, §8

The target in assay [5] is T1, BACE1. The assay is described as follows: BACE1 biochemical FRET based assay - Method 1 (Test Example 2-2). The note with it: 0.04 μg/mL BACE1, 450 minutes, Citrate buffer pH 5.0, read-out: BACE1 Biochemical FRET based assay - Method 1 PIC50 (converted).
Excerpt: as §1, §2, §3, §4, §5, §6, §7, §8

Assay [6] concerns the target T1, BACE1. The assay is described as follows: BACE1 cellular αLisa assay in SKNBE2 cells, Abeta 1-42 (Test Example 2-3). It counts as cell-based. The arrangement: endogenous in cells; host or cells: SKNBE2 human neuroblastoma cells expressing hAPP695. The note with it: SKNBE2 cells expressing hAPP695, 18 hours incubation, read-out: Cellular αLisa assay in SKNBE2 cells Abeta 42 pIC50 (converted). The method, then: In two αLisa assays the levels of Abeta 1-42 or Abeta total produced and secreted into the medium of human neuroblastoma SKNBE2 cells are quantified. The assays are based on the human neuroblastoma SKNBE2 expressing the wild type Amyloid Precursor Protein (hAPP695). The compounds are diluted and added to these cells, incubated for 18 hours and then measurements of Abeta 1-42 or Abeta total are taken. Abeta 1-42 or Abeta total are measured by sandwich αLisa using biotinylated antibody AbN/25 attached to streptavidin coated donor beads and antibody cAb42/26 or Ab 4G8 conjugated acceptor beads for the detection of Abeta 1-42 or Abeta total respectively. In the presence of Abeta 1-42 or Abeta total, the beads come into close proximity. The excitation of the donor beads provokes the release of singlet oxygen molecules that trigger a cascade of energy transfer in the acceptor beads, resulting in light emission. Light emission is measured after 1 h incubation (excitation at […] and emission at 615 nm).
as §3
LC=Median of the low control values • =Low control: Reaction without enzyme
HC=Median of the High control values • =High Control: Reaction with enzyme
as §8

pIC50: −log10 of the molar value.

T1 sequence (P56817 46-501): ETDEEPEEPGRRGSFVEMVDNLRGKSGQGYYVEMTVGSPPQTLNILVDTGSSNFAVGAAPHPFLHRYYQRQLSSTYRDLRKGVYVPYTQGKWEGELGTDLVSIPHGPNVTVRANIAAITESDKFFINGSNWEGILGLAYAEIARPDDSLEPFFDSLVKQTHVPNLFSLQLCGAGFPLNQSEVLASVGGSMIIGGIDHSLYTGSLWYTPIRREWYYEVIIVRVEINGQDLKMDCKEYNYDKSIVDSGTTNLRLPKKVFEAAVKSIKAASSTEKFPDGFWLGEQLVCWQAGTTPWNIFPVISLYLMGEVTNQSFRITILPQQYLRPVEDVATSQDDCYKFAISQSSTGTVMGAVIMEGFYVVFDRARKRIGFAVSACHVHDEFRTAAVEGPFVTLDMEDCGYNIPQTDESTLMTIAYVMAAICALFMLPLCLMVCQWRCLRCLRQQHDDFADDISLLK

Take `Cn1cc([C@@H]2OC[C@H]3OC(N)=N[C@](C)(c4cc(NC(=O)c5cc6c(cn5)OCCO6)ccc4F)[C@H]32)cn1` [Compound I-032]: on BACE1 [1], the selectivity is given as 112 and the pIC50 (commonly the IC50 on a negative log10 scale, so that one unit is a factor of ten) is 7.05. At BACE2 [2], this molecule gave a pIC50 of 5.00.

At BACE1 [1], `NC1=N[C@](CF)(c2cc(NC(=O)c3cc4c(cn3)OCCO4)ccc2F)[C@H]2COCC[C@H]2O1` [Compound I-033] showed a selectivity of 447 and a pIC50 of 8.16. In addition, the pIC50 against BACE2 [2] is 5.51.

At BACE1 [1], `NC1=N[C@](CF)(c2cc(NC(=O)c3cc4c(cn3)OC[C@H](F)O4)ccc2F)[C@H]2COCC[C@H]2O1` [Compound I-037] showed a selectivity of 263 and a pIC50 of 7.68. Moreover, the pIC50 against BACE2 [2] was 5.26.

As to `C[C@H]1OC[C@H]2OC(N)=N[C@](CF)(c3cc(NC(=O)c4cc5c(cn4)OC(F)(F)CO5)ccc3F)[C@@H]12` [Compound I-039], on BACE1 [1], the selectivity was 218 and the pIC50 is 8.65. Also, the pIC50 on BACE2 [2] is 6.31.

At BACE1 [1], `CC[C@@H]1OC[C@H]2OC(N)=N[C@](CF)(c3cc(NC(=O)c4cc5c(cn4)OC(F)(F)CO5)ccc3F)[C@@H]12` [Compound I-040] displayed a selectivity of 257. For the same molecule, the pIC50 against BACE1 [1] is 8.10; on BACE2 [2], 5.69.

Molecule `NC1=N[C@](CF)(c2cc(NC(=O)c3cc4c(cn3)OC(F)(F)CO4)ccc2F)[C@H]2OCC[C@H]2O1` [Compound I-043] returned a selectivity on BACE1 [1] of 234. The pIC50 on BACE1 [1] is 8.01; at BACE2 [2], 5.64.

On BACE1 [1], `C[C@@H]1OC[C@H]2OC(N)=N[C@](CF)(c3cc(NC(=O)c4cc5c(cn4)OC(F)(F)CO5)ccc3F)[C@@H]12` [Compound I-044] showed a selectivity of 131 and a pIC50 of 7.84. At BACE2 [2], this molecule showed a pIC50 of 5.72.

In the case of `C[C@H]1OC[C@H]2[C@@H]1OC(N)=N[C@]2(CF)c1cc(NC(=O)c2cc3c(cn2)OC(F)(F)O3)ccc1F` [Compound I-050], on BACE1 [1], the selectivity is 199. Also, the figures for the pIC50 at BACE1 [1] and against BACE2 [2] were 8.27 and 5.97, respectively.

`C[C@@H]1C[C@H]2OC(N)=N[C@](CF)(c3cc(NC(=O)c4cc5c(cn4)OCCO5)ccc3F)[C@H]2CO1` [Compound I-054]: the selectivity at BACE1 [1] worked out at 646. Further, the pIC50 at BACE1 [1] is 8.03; against BACE2 [2], 5.22.

In the case of `NC1=N[C@](CF)(c2cc(NC(=O)c3cc4c(cn3)OC(F)(F)CO4)ccc2F)[C@H]2CO[C@H](CF)C[C@H]2O1` [Compound I-057], on BACE1 [1], the selectivity worked out at 389 and the pIC50 was 8.59. This molecule had a pIC50 against BACE2 [2] of 6.00.

As for `CC1(S(C)(=O)=O)CCC(CF)(c2cc(NC(=O)c3cc4c(cn3)OCC(F)O4)ccc2F)N=C1N` (centres unmarked) [II-11], the IC50 is 331 nM on BACE2 [3], 363 nM on BACE2 [4], 6.46 nM on BACE1 [5] and 3.55 nM at BACE1 [6].

In the case of `[2H]C1([2H])Oc2cnc(C(=O)Nc3ccc(F)c(C4(CF)CCC(C)(S(C)(=O)=O)C(N)=N4)c3)c(F)c2OC1([2H])[2H]` (centres unmarked) [II-12], the IC50 on BACE2 [3] was 372 nM; on BACE2 [4], 661 nM; on BACE1 [5] it was 4.07 nM; at BACE1 [6] it was 2.57 nM.
